Measurements published in PMC10006169, “A phase I trial of LXS196, a protein kinase C (PKC) inhibitor, for metastatic uveal melanoma” (British Journal of Cancer, 2023).
Where “and” joins values, the source holds several entries; their conditions need not be identical. Equal entries are not always repeated.

Tests used:
Assay type in all cases: in vivo, human
[1] = tested on: metastatic uveal melanoma (MUM); assay: Tumour response (RECIST v1.1) and progression-free survival
Description: Tumour response was assessed locally by computed tomography (CT) and/or magnetic resonance imaging (MRI) of the chest, abdomen and pelvis, according to Response Evaluation Criteria in Solid Tumours (RECIST) v1.1 at baseline, on C3D1 and every two cycles thereafter until cycle 11. After 11 cycles of treatment, response was evaluated every three cycles until the end of treatment. Fresh metastatic tumour biopsies were collected at baseline (prior to first dose) and on treatment at C1D15 to evaluate the modulation of PKC substrate proteins in tumours following exposure to LXS196 and to perform exploratory transcriptome and targeted DNA sequencing. Whole blood samples (peripheral blood mononuclear cells; PBMCs) were collected pre-dose on C1D1 and D15, and at various time points post-dose on C1D1, D2, D3, D15 and D16 to evaluate the modulation of PKC substrate proteins in a surrogate tissue. Owing to the exploratory nature of this phase I study, formal statistical tests were not planned to be performed. Data are presented using descriptive statistics and visualisations. Continuous variables are described with the mean and range. Categorical variables are described using counts and percentages. PFS is described using the Kaplan–Meier (KM) method.

PKC delta (pPKCd, S299) = assay: pPKC delta in tumour biopsies (Sally Sue microcapillary electrophoresis); conditions: QD schedule
Text: (§1) Fresh metastatic tumour biopsies were collected at baseline (prior to first dose) and on treatment at C1D15 to evaluate the modulation of PKC substrate proteins in tumours following exposure to LXS196 and to perform exploratory transcriptome and targeted DNA sequencing. Whole blood samples (peripheral blood mononuclear cells; PBMCs) were collected pre-dose on C1D1 and D15, and at various time points post-dose on C1D1, D2, D3, D15 and D16 to evaluate the modulation of PKC substrate proteins in a surrogate tissue. Owing to the exploratory nature of this phase I study, formal statistical tests were not planned to be performed. Data are presented using descriptive statistics and visualisations. Continuous variables are described with the mean and range. […]
(§2) Custom assays were developed to measure the status of the PKC pathway. In brief, tumour tissue was homogenised in lysis buffer, and total protein concentrations were determined using a bicinchoninic acid (BCA) assay (Pierce). […] Total and phosphorylated PKCdelta (PKCd; pPKCd, phosphorylated at S299) levels were determined using microcapillary electrophoresis on the Sally Sue platform (Protein Simple, San Jose, CA, USA). Area under the peaks corresponding to the target was measured and used for further calculation. […]
Total and phosphorylated PKC delta were measured in all feasible tumour biopsies. […] The normalised PKC delta is calculated as follows: […]

MARCKS (pMARCKS) = assay: pMARCKS in tumour biopsies (Meso Scale Discovery); conditions: QD schedule
Text: as §1, §2
Total and phosphorylated MARCKS were measured in all feasible tumour biopsies. […] The normalised MARCKS is calculated as follows: […]

Question: How did the “BOR: complete response (CR)” value ([1]; 300 mg BID (RDE) n=18) turn out when CC1(N)CCN(c2cccnc2NC(=O)c2nc(-c3ncccc3C(F)(F)F)cnc2N)CC1 [LXS196] was run?
Answer: Its value is 0 n (%).

Question: What about the “BOR: partial response (PR)” value ([1]; 300 mg BID (RDE) n=18) of the same compound?
Answer: Its value is 2 (11.1%) n (%) and 2 (11.1) n (%).

Question: And the “BOR: progressive disease (PD)” value ([1]; 300 mg BID (RDE) n=18)?
Answer: Its value is 3 (16.7) n (%).

Question: What about the “BOR: unknown” value ([1]; 300 mg BID (RDE) n=18) of the same compound?
Answer: Its value is 1 (5.6) n (%).

Question: What about the “Kaplan–Meier PFS rate (95% CI) at 4 months” value ([1]; 300 mg BID (RDE) n=18) of the same compound?
Answer: Its value is 44.4 (21.6–65.1) %.

Question: What about the “Kaplan–Meier PFS rate (95% CI) at 6 months” value ([1]; 300 mg BID (RDE) n=18) of the same compound?
Answer: The value was 27.8 (10.1–48.9) %.

Question: What about the “Kaplan–Meier PFS rate (95% CI) at 12 months” value ([1]; 300 mg BID (RDE) n=18) of the same compound?
Answer: The value was 22.2 (6.9–42.9) %.

Question: And the “Number of PFS events” value ([1]; 300 mg BID (RDE) n=18)?
Answer: Its value is 18 (100) n (%).

Question: What about the “PFS 25th percentile (95% CI)” value ([1]; 300 mg BID (RDE) n=18) of the same compound?
Answer: Its value is 2.1 (0.8–3.6) months.

Question: What about the “PFS 50th percentile, median PFS (95% CI)” value ([1]; 300 mg BID (RDE) n=18) of the same compound?
Answer: Its value is 3.7 (2.1–5.4) months.

Question: What about the “PFS 75th percentile (95% CI)” value ([1]; 300 mg BID (RDE) n=18) of the same compound?
Answer: The value was 7.2 (3.7–25.8) months.

Question: And the “PFS events: deaths” value ([1]; 300 mg BID (RDE) n=18)?
Answer: Its value is 1 (5.6) n (%).

Question: What about the “PFS events: progression” value ([1]; 300 mg BID (RDE) n=18) of the same compound?
Answer: The value was 17 (94.4) n (%).

Question: What about the “BOR: complete response (CR)” value ([1]; All BID n=30) of the same compound?
Answer: The value was 1 n (%) and 1 (3.3) n (%).

Question: What about the “BOR: partial response (PR)” value ([1]; All BID n=30) of the same compound?
Answer: Its value is 3 n (%) and 3 (10.0) n (%).

Question: And the “BOR: progressive disease (PD)” value ([1]; All BID n=30)?
Answer: The value was 6 (20.0) n (%).

Question: And the “BOR: unknown” value ([1]; All BID n=30)?
Answer: Its value is 2 (6.7) n (%).

Question: What about the “Kaplan–Meier PFS rate (95% CI) at 4 months” value ([1]; All BID n=30) of the same compound?
Answer: Its value is 50.0 (31.3–66.1) %.

Question: And the “Kaplan–Meier PFS rate (95% CI) at 6 months” value ([1]; All BID n=30)?
Answer: Its value is 33.3 (17.5–50.0) %.

Question: What about the “Kaplan–Meier PFS rate (95% CI) at 12 months” value ([1]; All BID n=30) of the same compound?
Answer: Its value is 26.7 (12.6–43.0) %.

Question: And the “Number of PFS events” value ([1]; All BID n=30)?
Answer: Its value is 30 (100) n (%).

Question: What about the “Overall response rate (ORR: CR + PR)” value ([1]; All BID n=30) of the same compound?
Answer: The value was 4 (13.3%) n (%) [95% CI].

Question: What about the “PFS 25th percentile (95% CI)” value ([1]; All BID n=30) of the same compound?
Answer: Its value is 1.9 (1.6–3.6) months.

Question: What about the “PFS 50th percentile, median PFS (95% CI)” value ([1]; All BID n=30) of the same compound?
Answer: The value was 4.1 (3.5–7.2) months.

Question: What about the “PFS 75th percentile (95% CI)” value ([1]; All BID n=30) of the same compound?
Answer: Its value is 12.9 (5.4–25.8) months.

Question: What about the “PFS events: deaths” value ([1]; All BID n=30) of the same compound?
Answer: The value was 2 (6.7) n (%).

Question: And the “PFS events: progression” value ([1]; All BID n=30)?
Answer: The value was 28 (93.3) n (%).

Question: What about the “BOR: complete response (CR)” value ([1]; All QD n=38) of the same compound?
Answer: Its value is 0 n (%).

Question: And the “BOR: partial response (PR)” value ([1]; All QD n=38)?
Answer: The value was 2 n (%) and 2 (5.3) n (%).

Question: What about the “BOR: progressive disease (PD)” value ([1]; All QD n=38) of the same compound?
Answer: Its value is 9 (23.7) n (%).

Question: What about the “BOR: unknown” value ([1]; All QD n=38) of the same compound?
Answer: Its value is 0 n (%).

Question: And the “Kaplan–Meier PFS rate (95% CI) at 4 months” value ([1]; All QD n=38)?
Answer: Its value is 36.8 (22.0–51.8) %.

Question: And the “Kaplan–Meier PFS rate (95% CI) at 6 months” value ([1]; All QD n=38)?
Answer: The value was 26.3 (13.7–40.8) %.

Question: And the “Kaplan–Meier PFS rate (95% CI) at 12 months” value ([1]; All QD n=38)?
Answer: The value was 0.0 (NE–NE) %.

Question: What about the “Number of PFS events” value ([1]; All QD n=38) of the same compound?
Answer: Its value is 38 (100.0) n (%).

Question: And the “PFS 25th percentile (95% CI)” value ([1]; All QD n=38)?
Answer: Its value is 3.4 (1.7–3.5) months.

Question: And the “PFS 50th percentile, median PFS (95% CI)” value ([1]; All QD n=38)?
Answer: The value was 3.5 (3.5–5.4) months.

Question: What about the “PFS 75th percentile (95% CI)” value ([1]; All QD n=38) of the same compound?
Answer: Its value is 6.0 (3.6–7.3) months.

Question: And the “PFS events: deaths” value ([1]; All QD n=38)?
Answer: Its value is 0 (0.0) n (%).

Question: And the “PFS events: progression” value ([1]; All QD n=38)?
Answer: The value was 38 (100.0) n (%).

Question: What about the “BOR: complete response (CR)” value ([1]; All patients N=68) of the same compound?
Answer: The value was 1 (1.5) n (%).

Question: And the “BOR: partial response (PR)” value ([1]; All patients N=68)?
Answer: The value was 5 n (%) and 5 (7.4) n (%).

Question: And the “BOR: progressive disease (PD)” value ([1]; All patients N=68)?
Answer: The value was 15 (22.1) n (%).

Question: And the “BOR: unknown” value ([1]; All patients N=68)?
Answer: The value was 2 (2.9) n (%).

Question: What about the “Kaplan–Meier PFS rate (95% CI) at 4 months” value ([1]; All patients N=68) of the same compound?
Answer: The value was 42.6 (30.8–54.0) %.

Question: What about the “Kaplan–Meier PFS rate (95% CI) at 6 months” value ([1]; All patients N=68) of the same compound?
Answer: The value was 29.4%.

Question: And the “Kaplan–Meier PFS rate (95% CI) at 12 months” value ([1]; All patients N=68)?
Answer: The value was 11.8 (5.5–20.6) %.

Question: What about the “Number of PFS events” value ([1]; All patients N=68) of the same compound?
Answer: Its value is 68 (100) n (%).

Question: What about the “Overall response rate (ORR: CR + PR)” value ([1]; All patients N=68) of the same compound?
Answer: Its value is 8.8 n (%) [95% CI].

Question: What about the “PFS 25th percentile (95% CI)” value ([1]; All patients N=68) of the same compound?
Answer: The value was 2.0 (1.7–3.5) months.

Question: What about the “PFS 50th percentile, median PFS (95% CI)” value ([1]; All patients N=68) of the same compound?
Answer: The value was 3.6 (3.5–5.4) months.

Question: And the “PFS 75th percentile (95% CI)” value ([1]; All patients N=68)?
Answer: Its value is 7.2 (5.4–9.4) months.

Question: What about the “PFS events: deaths” value ([1]; All patients N=68) of the same compound?
Answer: The value was 2 n (%) and 2 (2.9) n (%).

Question: What about the “PFS events: progression” value ([1]; All patients N=68) of the same compound?
Answer: Its value is 66 n (%) and 66 (97.1) n (%).

Question: And the “Stable disease (SD) in evaluable patients” value ([1]; RECIST v1.1, all doses)?
Answer: Its value is 45/66.

Question: What about the “Median duration of SD” value ([1]; n=45, range 2.07–30.23) of the same compound?
Answer: Its value is 5.32 months.

Question: What about the “Median duration of response” value ([1]; patients with RECIST response n=6, range 2.99–41.95) of the same compound?
Answer: Its value is 10.15 months and 10 months.

Question: And the “pPKC delta, mean (range) percentage change from baseline to C1D15 (normalised ratio)” value (PKC delta (pPKCd, S299))?
Answer: The value was −68.1 (−91.4, −28.6) %.

Question: And the “pMARCKS, mean (range) percentage change from baseline to C1D15 (normalised ratio)” value (MARCKS (pMARCKS))?
Answer: The value was −39.7 (−89.7, 199) %.
